Source: patent US20050209278A1, “Piperidinyl- and piperazinyl-sulfonylmethyl hydroxamic acids and their use as protease inhibitors” (priority 2002, published 2005)
Like-named read-outs stand apart in the source and are kept apart here.

Experiments:
MMP-2 = target: T1, MMP-2 (Homo sapiens, UniProt P08253); experiment: In vitro MMP inhibition, IC50 determination (fluorogenic substrate I); type: biochemical; conditions: read-out: MMP-2 (IC-50)
T1 construct: made in house; host or cells: MMP-2-transfected p2AHT2 cells
T1 sequence (P08253 110-660): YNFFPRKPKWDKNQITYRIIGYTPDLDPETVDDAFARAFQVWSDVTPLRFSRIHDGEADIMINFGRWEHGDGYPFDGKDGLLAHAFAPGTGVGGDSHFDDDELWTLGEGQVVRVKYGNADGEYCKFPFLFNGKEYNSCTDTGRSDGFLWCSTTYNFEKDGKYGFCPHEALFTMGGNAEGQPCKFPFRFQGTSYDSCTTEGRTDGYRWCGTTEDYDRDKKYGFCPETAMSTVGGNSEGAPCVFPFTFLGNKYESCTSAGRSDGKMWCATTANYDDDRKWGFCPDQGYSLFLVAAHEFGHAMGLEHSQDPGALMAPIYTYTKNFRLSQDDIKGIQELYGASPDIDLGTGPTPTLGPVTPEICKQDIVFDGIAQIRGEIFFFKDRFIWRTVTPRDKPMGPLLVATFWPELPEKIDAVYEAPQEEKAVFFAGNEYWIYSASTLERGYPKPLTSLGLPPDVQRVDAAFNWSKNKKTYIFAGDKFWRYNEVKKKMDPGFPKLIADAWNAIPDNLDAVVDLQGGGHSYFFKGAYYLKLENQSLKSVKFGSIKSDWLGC

MMP-13 = target: T2, MMP-13 (Homo sapiens, UniProt P45452); experiment: as above; type: biochemical; conditions: read-out: MMP-13 (IC-50)
T2 construct: made in house; host or cells: baculovirus / insect cells

SMILES	IC50 (MMP-2; value in parenthesis) [nM]	IC50 (MMP-13; value in parenthesis) [nM]	IC50 (MMP-2; value in parentheses) [nM]	IC50 (MMP-13; value in parentheses) [nM]
COCCCc1ccc(N2CCN(S(=O)(=O)C3(C(=O)NO)CCN(CCOC)CC3)CC2)cc1 [Example 180]	2.14	1.21	–	–
COCCN1CCC(C(=O)NO)(S(=O)(=O)N2CCN(c3ccc(CC4CCCCC4)cc3)CC2)CC1 [Example 181]	10.2	18	–	–
COCCN1CCC(C(=O)NO)(S(=O)(=O)N2CCN(c3ccc(CCC4CCCC4)cc3)CC2)CC1 [Example 182]	0.12	0.14	–	–
CCOc1ccc(N2CCN(S(=O)(=O)C3(C(=O)NO)CCN(CCOC)CC3)CC2)cc1F [Example 184]	0.65	2.26	–	–
CCCOc1ccc(N2CCN(S(=O)(=O)C3(C(=O)NO)CCN(CCOC)CC3)CC2)cc1F [Example 185]	0.59	1.63	–	–
CCC(CC)Cc1ccc(N2CCN(S(=O)(=O)C3(C(=O)NO)CCN(CCOC)CC3)CC2)cc1 [Example 188]	12.4	4.01	–	–
CCCCOc1ccc(N2CCN(S(=O)(=O)C3(C(=O)NO)CCN(C(=O)CCC)CC3)CC2)cc1 [Example 290]	–	–	59.5	0.35

Further molecules by falling IC50 (MMP-2; value in parenthesis), results first:

IC50 (MMP-2; value in parenthesis) [nM]	IC50 (MMP-13; value in parenthesis) [nM]	IC50 (MMP-2; value in parentheses) [nM]	IC50 (MMP-13; value in parentheses) [nM]	SMILES
78	47.3	–	–	CCc1cnc(N2CCN(S(=O)(=O)C3(C(=O)NO)CCN(CCOC)CC3)CC2)nc1 [Example 187]
3.14	2.63	–	–	COCCN1CCC(C(=O)NO)(S(=O)(=O)N2CCN(c3ccc(C#N)cc3)CC2)CC1 [Example 186]
2.31	2.76	–	–	COCCN1CCC(C(=O)NO)(S(=O)(=O)N2CCN(c3ccc(CC4CCC4)cc3)CC2)CC1 [Example 183]
1.02	0.53	–	–	CCOCCCc1ccc(N2CCN(S(=O)(=O)C3(C(=O)NO)CCN(CCOC)CC3)CC2)cc1 [Example 179]
